Columns and labels:
Assay in all cases: relative viability (nuclei count vs DMSO), 5 days (fraction); higher = more cells survive
[1] = system: EMC-BAC-2
Outline: (§1)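 Lung cancer cell lines, seeded in 1536-well plates, were treated the following day by pin tool with a single drug or with five library-drug doses (not always all listed) in √10 steps on top of a fixed anchor-drug dose. Cells were fixed and nuclei stained in one step after 5 days, and nuclei were counted. Relative viability is the nuclei count for treated wells divided by that for vehicle wells, reported as medians of duplicate plates.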

[2] = system: EPLC-272H
Outline: as §1

[3] = system: H3255
Outline: as §1

[4] = system: HOP-62
Outline: as §1

[5] = system: LCLC-97TM1
Outline: as §1

[6] = system: LXF-289
Outline: as §1

[7] = system: NCI-H1563
Outline: as §1

[8] = system: NCI-H1734
Outline: as §1

[9] = system: NCI-H1915
Outline: as §1

[10] = system: NCI-H1993
Outline: as §1

[11] = system: NCI-H2009
Outline: as §1

[12] = system: NCI-H2023
Outline: as §1

[13] = system: NCI-H2085
Outline: as §1

[14] = system: NCI-H2126
Outline: as §1

[15] = system: NCI-H2347
Outline: as §1

[16] = system: NCI-H322M
Outline: as §1

[17] = system: NCI-H647
Outline: as §1

[18] = system: NCI-H661
Outline: as §1

[19] = system: NCI-H727
Outline: as §1

[20] = system: PC-14
Outline: as §1

[21] = system: SK-LU-1
Outline: as §1

[22] = system: SW 1573
Outline: as §1

Work on `COc1cc2nccc(Oc3ccc(NC(=O)Nc4cc(C)on4)c(Cl)c3)c2cc1OC` [Tivozanib] + COc1cccc2cc(-c3nc([C@H]4CC[C@H](C(=O)O)CC4)n4ncnc(N)c34)[nH]c12 [OSI-027] (partner 0.5 µM) yielded a relative viability ([1]; first compound 0.005 µM) of 0.372, a relative viability ([1]; first compound 0.01581 µM) of 0.385 and a relative viability ([1]; first compound 0.05 µM) of 0.38. For the same molecule, the relative viability ([1]; first compound 0.1581 µM) was 0.279, the relative viability ([1]; first compound 0.5 µM) was 0.334 and the relative viability ([2]; first compound 0.005 µM) was 0.268. The relative viability ([2]; first compound 0.01581 µM) was 0.318, the relative viability ([2]; first compound 0.05 µM) was 0.299 and the relative viability ([2]; first compound 0.1581 µM) was 0.244. It also gave a relative viability ([2]; first compound 0.5 µM) of 0.294, a relative viability ([3]; first compound 0.005 µM) of 0.571 and a relative viability ([3]; first compound 0.01581 µM) of 0.597. The relative viability ([3]; first compound 0.05 µM) was 0.634, the relative viability ([3]; first compound 0.1581 µM) was 0.47 and the relative viability ([3]; first compound 0.5 µM) was 0.556. The relative viability ([4]; first compound 0.005 µM) was 0.838, the relative viability ([4]; first compound 0.01581 µM) was 0.829 and the relative viability ([4]; first compound 0.05 µM) was 0.798. For the same molecule, the relative viability ([4]; first compound 0.1581 µM) was 0.587, the relative viability ([4]; first compound 0.5 µM) was 0.817 and the relative viability ([5]; first compound 0.005 µM) was 0.52. It also gave a relative viability ([5]; first compound 0.01581 µM) of 0.573, a relative viability ([5]; first compound 0.05 µM) of 0.636 and a relative viability ([5]; first compound 0.1581 µM) of 0.476. The relative viability ([5]; first compound 0.5 µM) was 0.455, the relative viability ([6]; first compound 0.005 µM) was 0.812 and the relative viability ([6]; first compound 0.01581 µM) was 0.786. It also gave a relative viability ([6]; first compound 0.05 µM) of 0.845, a relative viability ([6]; first compound 0.1581 µM) of 0.638 and a relative viability ([6]; first compound 0.5 µM) of 0.618. The relative viability ([7]; first compound 0.005 µM) was 0.751, the relative viability ([7]; first compound 0.01581 µM) was 0.773 and the relative viability ([7]; first compound 0.05 µM) was 0.784. For the same molecule, the relative viability ([7]; first compound 0.1581 µM) was 0.718, the relative viability ([7]; first compound 0.5 µM) was 0.817 and the relative viability ([8]; first compound 0.005 µM) was 0.567. It also gave a relative viability ([8]; first compound 0.01581 µM) of 0.621, a relative viability ([8]; first compound 0.05 µM) of 0.592 and a relative viability ([8]; first compound 0.1581 µM) of 0.429. It also gave a relative viability ([8]; first compound 0.5 µM) of 0.558, a relative viability ([9]; first compound 0.005 µM) of 0.594 and a relative viability ([9]; first compound 0.01581 µM) of 0.604. The relative viability ([9]; first compound 0.05 µM) was 0.653, the relative viability ([9]; first compound 0.1581 µM) was 0.523 and the relative viability ([9]; first compound 0.5 µM) was 0.49. It also gave a relative viability ([10]; first compound 0.005 µM) of 0.503, a relative viability ([10]; first compound 0.01581 µM) of 0.534 and a relative viability ([10]; first compound 0.05 µM) of 0.543. It also gave a relative viability ([10]; first compound 0.1581 µM) of 0.518, a relative viability ([10]; first compound 0.5 µM) of 0.429 and a relative viability ([11]; first compound 0.005 µM) of 0.605. The relative viability ([11]; first compound 0.01581 µM) was 0.689, the relative viability ([11]; first compound 0.05 µM) was 0.65 and the relative viability ([11]; first compound 0.1581 µM) was 0.374. For the same molecule, the relative viability ([11]; first compound 0.5 µM) was 0.386, the relative viability ([12]; first compound 0.005 µM) was 0.393 and the relative viability ([12]; first compound 0.01581 µM) was 0.386. It also gave a relative viability ([12]; first compound 0.05 µM) of 0.381, a relative viability ([12]; first compound 0.1581 µM) of 0.272 and a relative viability ([12]; first compound 0.5 µM) of 0.324. The relative viability ([13]; first compound 0.005 µM) was 0.757, the relative viability ([13]; first compound 0.01581 µM) was 0.66 and the relative viability ([13]; first compound 0.05 µM) was 0.817. For the same molecule, the relative viability ([13]; first compound 0.1581 µM) was 0.382, the relative viability ([13]; first compound 0.5 µM) was 0.528 and the relative viability ([14]; first compound 0.005 µM) was 0.655. It also gave a relative viability ([14]; first compound 0.01581 µM) of 0.701, a relative viability ([14]; first compound 0.05 µM) of 0.776 and a relative viability ([14]; first compound 0.5 µM) of 0.691. For the same molecule, the relative viability ([15]; first compound 0.01581 µM) was 0.373, the relative viability ([15]; first compound 0.05 µM) was 0.262 and the relative viability ([15]; first compound 0.5 µM) was 0.408. For the same molecule, the relative viability ([16]; first compound 0.005 µM) was 0.513, the relative viability ([16]; first compound 0.01581 µM) was 0.603 and the relative viability ([16]; first compound 0.05 µM) was 0.545. It also gave a relative viability ([16]; first compound 0.1581 µM) of 0.455, a relative viability ([16]; first compound 0.5 µM) of 0.461 and a relative viability ([17]; first compound 0.005 µM) of 0.74. For the same molecule, the relative viability ([17]; first compound 0.01581 µM) was 0.618, the relative viability ([17]; first compound 0.05 µM) was 0.728 and the relative viability ([17]; first compound 0.1581 µM) was 0.526. It also gave a relative viability ([17]; first compound 0.5 µM) of 0.658, a relative viability ([18]; first compound 0.005 µM) of 0.672 and a relative viability ([18]; first compound 0.01581 µM) of 0.73. It also gave a relative viability ([18]; first compound 0.05 µM) of 0.724, a relative viability ([18]; first compound 0.1581 µM) of 0.646 and a relative viability ([18]; first compound 0.5 µM) of 0.688. It also gave a relative viability ([19]; first compound 0.005 µM) of 0.501, a relative viability ([19]; first compound 0.01581 µM) of 0.799 and a relative viability ([19]; first compound 0.05 µM) of 0.688. The relative viability ([19]; first compound 0.1581 µM) was 0.434, the relative viability ([19]; first compound 0.5 µM) was 0.68 and the relative viability ([20]; first compound 0.005 µM) was 0.695. For the same molecule, the relative viability ([20]; first compound 0.01581 µM) was 0.928, the relative viability ([20]; first compound 0.05 µM) was 0.83 and the relative viability ([20]; first compound 0.1581 µM) was 0.664. It also gave a relative viability ([20]; first compound 0.5 µM) of 0.664, a relative viability ([21]; first compound 0.005 µM) of 0.343 and a relative viability ([21]; first compound 0.01581 µM) of 0.314. For the same molecule, the relative viability ([21]; first compound 0.05 µM) was 0.383, the relative viability ([21]; first compound 0.1581 µM) was 0.24 and the relative viability ([21]; first compound 0.5 µM) was 0.338. For the same molecule, the relative viability ([22]; first compound 0.005 µM) was 0.575, the relative viability ([22]; first compound 0.01581 µM) was 0.633 and the relative viability ([22]; first compound 0.05 µM) was 0.68. It also gave a relative viability ([22]; first compound 0.1581 µM) of 0.366 and a relative viability ([22]; first compound 0.5 µM) of 0.447.
